Test results from patent publication US12589104B2, “Thiosaccharides for use in treating coronavirus infection” (priority 2020, dated 2026).
Structures can show the parent of a compound that is named as a salt.

Experiments:
[1] = tested on: SARS-CoV-2, isolate USA-WA1/2020; assay type: cell-based
[2] = target: T1, SARS-CoV-2 RBD^original binding to ACE2 (Severe acute respiratory syndrome coronavirus 2, UniProt P0DTC2); conditions: for binding of RBD^original to ACE2 at one and two hours post exposure and wash: 5 mM drug for 1 hour, washed, ACE2 added after 60 or 120 minutes; for inhibition of binding of RBD^original to ACE2: RBD exposed to drug for 60 minutes, 0 to 20 mM
T1 construct: ACRO Biosystems); purchased ACRO Biosystems

[3] = cited from earlier work
[4] = tested on: SARS CoV2 (isolate USA-WA1/2020); design: species or system Syrian hamsters (Mesocricetus auratus); conditions: hamster, in vivo
[5] = tested on: SARS-2-S pseudovirus; assay type: cell-based, SARS-CoV-2
[6] = tested on: VSV pseudotype bearing the SARS-2-S protein (VSV-S); assay type: cell-based, SARS-CoV-2
[7] = target: T2, RBD of SARS-2-S binding to ACE2 (Severe acute respiratory syndrome coronavirus 2, UniProt P0DTC2); design: species or system SARS-CoV-2
T2 construct: Recombinantly expressed RBD of SARS-2-S was first immobilized to a surface

[8] = assay type: physicochemical; conditions: 11 mg/mL in vehicle, Aerogen Solo vibrating mesh nebulizer

In the case of `NCCS` [Cysteamine], the “cytopathic effects in virus-infected cells, virus exposed to drug prior to infection” value [1] is reported as “significantly inhibited”, the “binding of RBD^original to ACE2 at one and two hours post exposure and wash” value [2] is reported as “binding inhibition was retained for two hours after drug removal” and the “inhibition of binding of RBD^original to ACE2” value (“inhibition of binding … to ACE2” below) [2] is reported as “strong inhibitory effects”. For the same molecule, the “pKa (thiol group)” value [3] was 8.2, the “interleukin-6 levels in lung lavage” value [4] was “lower than control” and the lung weights [4] was “lower than in control groups”. For the same molecule, the “lymphocytes in BAL fluid” value [4] was “decreases”, the “neutrophils in BAL fluid” value [4] was “decreases” and the “total leukocyte counts in the bronchoalveolar lavage (BAL) fluid” value [4] was “lower than control”.

For `O=S(=O)(O)CCS` [MESNA, 2-Mercaptoethane sulfonate, sodium salt], the “antiviral efficacy in vitro compared to NAC” value [5] was “superior antiviral efficacy in vitro”, the “binding of RBD^original to ACE2 at one and two hours post exposure and wash” value [2] was “binding inhibition was retained for two hours after drug removal” and the “inhibition of binding … to ACE2” value [2] was “strong inhibitory effects”.

In the case of `OC1C(O)[C@H](O)C(CS)O[C@@H]1O[C@H]1OC(CS)[C@@H](O)C(O)C1O` (stereo partly drawn) [MUC, 6,6′-dithiotrehalose], the “effectiveness for inhibiting viral entry compared to NAC” value [6] is reported as “more effective than NAC”, the “inhibition of VSV-S cellular entry” value [6] is reported as “inhibited VSV-S cellular entry” and the “inhibition of VSV-S entry” value [6] is reported as “All three concentrations of MUC resulted in potent inhibition of VSV-S entry”. For the same molecule, the “inhibition of binding of ACE2 to SARS-2-S” value [7] was “inhibited binding of ACE2 to SARS-2-S”, the “persistence of binding inhibition after drug is washed out” value [7] was “binding inhibition persists following drug contact” and the “potency in inhibiting ACE2 binding compared to NAC” value [7] was “stronger potency”.

For `OC1C(O)[C@H](O)C(CS)O[C@@H]1O[C@@H]1OC(CS)[C@@H](O)C(O)C1O` (stereo partly drawn) [MUC-031, 6,6′-dithiotrehalose], the “average mass median aerodynamic diameter (MMAD) of the exposure atmosphere” value [8] was 2.60 μm.

For `CC(=O)N[C@@H](CS)C(=O)O` [NAC, N-acetyl-L-cysteine], the “inhibition of VSV-S cellular entry” value [6] was “inhibited VSV-S cellular entry”, the “inhibition of VSV-S entry” value [6] was “only 5 and 25 mM of NAC resulted in significant cell entry inhibition” and the “inhibition of binding of ACE2 to SARS-2-S” value [7] was “inhibited binding of ACE2 to SARS-2-S”.

With `NCCCNCCS` [WR-1065] the “binding of RBD^original to ACE2 at one and two hours post exposure and wash” value [2] was “binding inhibition was retained for two hours after drug removal” and the “inhibition of binding … to ACE2” value [2] was “strong inhibitory effects”.

In the case of `NCCCNCCSP(=O)(O)O` [amifostine, Amifostine], the “pseudovirus cell entry after pretreatment of SARS-2-S pseudovirus with drug” value [5] is reported as “did not inhibit viral cell entry”.

With `N[C@@H](CSCC(=O)O)C(=O)O` [carbocysteine, Carbocysteine] the “pseudovirus cell entry after pretreatment of SARS-2-S pseudovirus with drug” value [5] was “did not inhibit viral cell entry” and the “cytopathic effects in virus-infected cells, virus exposed to drug prior to infection” value [1] was “significantly inhibited”.
